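Results reflect a 48-hour exposure of cells in 96-well plates to compound at five concentrations. GI50 marks 50% less growth. TGI is the concentration that stops growth completely.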
Experiments:
Test in all cases: NCI anticancer screen, dose series, 48 h; in the data active = GI50 below about 0.43 µM; inactive = the rest
786-0 renal = tested on: 786-0 renal
A498 renal = tested on: A498 renal
DU-145 prostate = tested on: DU-145 prostate
EKVX NSCLC = tested on: EKVX NSCLC
HOP-62 NSCLC = tested on: HOP-62 NSCLC
NCI-H460 lung = tested on: NCI-H460 lung
SF-268 CNS = tested on: SF-268 CNS
SNB-19 CNS = tested on: SNB-19 CNS
UACC-257 melanoma = tested on: UACC-257 melanoma
SR leukemia = tested on: SR leukemia

Nc1ccc(C#Cc2ccccc2C#CCCCCO)cc1
40.4 µM: TGI (SF-268 CNS)
45.4 µM: TGI (NCI-H460 lung)
33.8 µM: TGI (UACC-257 melanoma)
inactive: GI50 (786-0 renal) 13.8 µM | GI50 (A498 renal) 19.8 µM | GI50 (DU-145 prostate) 18.4 µM | GI50 (EKVX NSCLC) 18.9 µM | GI50 (HOP-62 NSCLC) 15.2 µM | GI50 (NCI-H460 lung) 21.8 µM | GI50 (SF-268 CNS) 19.9 µM | GI50 (SNB-19 CNS) 17.5 µM | GI50 (UACC-257 melanoma) 18.9 µM
27.5 µM: TGI (786-0 renal)
28.7 µM: TGI (HOP-62 NSCLC)
37.8 µM: TGI (EKVX NSCLC)
35.1 µM: TGI (DU-145 prostate)
42.1 µM: TGI (A498 renal)
31.3 µM: TGI (SNB-19 CNS)

O=C(NC1CCC[C@H]1OC(=O)c1ccccc1)c1ccccc1 (some centres undefined)
> 100 µM: TGI (786-0 renal) | TGI (A498 renal) | TGI (EKVX NSCLC) | TGI (NCI-H460 lung) | TGI (SF-268 CNS) | TGI (SNB-19 CNS) | TGI (SR leukemia) | TGI (UACC-257 melanoma)

Cc1ccsc1C(NC(=O)c1ccccc1)c1cc(Cl)c2cccnc2c1O (centres undefined)
active: GI50 (EKVX NSCLC) 0.371 µM | GI50 (NCI-H460 lung) 0.341 µM | GI50 (SNB-19 CNS) 0.394 µM | GI50 (SR leukemia) 0.398 µM
7.29 µM: TGI (A498 renal)
11.4 µM: TGI (786-0 renal)
5.68 µM: TGI (HOP-62 NSCLC)
2.03 µM: TGI (NCI-H460 lung)
12.3 µM: TGI (SR leukemia)
14.2 µM: TGI (DU-145 prostate)
15.7 µM: TGI (SNB-19 CNS)
10.9 µM: TGI (EKVX NSCLC)
inactive: GI50 (786-0 renal) 1.19 µM | GI50 (A498 renal) 0.936 µM | GI50 (DU-145 prostate) 0.869 µM | GI50 (HOP-62 NSCLC) 0.471 µM | GI50 (SF-268 CNS) 0.6 µM
12.1 µM: TGI (SF-268 CNS)

[N-]=[N+]=C(C(=O)CN1CCCC1=O)S(=O)(=O)c1ccccc1
> 100 µM: TGI (786-0 renal) | TGI (DU-145 prostate) | TGI (EKVX NSCLC) | TGI (HOP-62 NSCLC) | TGI (NCI-H460 lung) | TGI (SF-268 CNS) | TGI (SNB-19 CNS) | TGI (SR leukemia) | TGI (UACC-257 melanoma)

CC(C)N1CC2CC(CN(C(=O)c3ccc(Cl)cc3)C2)C1
> 100 µM: TGI (786-0 renal) | TGI (A498 renal) | TGI (EKVX NSCLC) | TGI (HOP-62 NSCLC) | TGI (NCI-H460 lung) | TGI (SF-268 CNS) | TGI (SNB-19 CNS) | TGI (UACC-257 melanoma)

COc1ccc(C(C2=C(O)CC(C)OC2=O)C2=C(O)CC(C)OC2=O)cc1 (centres undefined)
> 100 µM: TGI (786-0 renal) | TGI (EKVX NSCLC) | TGI (HOP-62 NSCLC) | TGI (NCI-H460 lung) | TGI (SF-268 CNS) | TGI (SNB-19 CNS) | TGI (SR leukemia) | TGI (UACC-257 melanoma)

Cc1[nH]nc(C(F)(F)F)c1Cc1sc2c(c1C(=O)N1C[C@](C)(O)CO1)c(=O)n(C)c(=O)n2C(C)C
> 100 µM: TGI (786-0 renal) | TGI (A498 renal) | TGI (DU-145 prostate) | TGI (EKVX NSCLC) | TGI (HOP-62 NSCLC) | TGI (NCI-H460 lung) | TGI (SF-268 CNS) | TGI (SNB-19 CNS)
inactive: GI50 (786-0 renal) > 100 µM | GI50 (A498 renal) 47.3 µM | GI50 (DU-145 prostate) > 100 µM | GI50 (EKVX NSCLC) > 100 µM | GI50 (HOP-62 NSCLC) > 100 µM | GI50 (NCI-H460 lung) > 100 µM | GI50 (SF-268 CNS) > 100 µM | GI50 (SNB-19 CNS) > 100 µM

CCC(O)CCCCCCCCCCCCCCC(=O)O (centres undefined)
> 100 µM: TGI (786-0 renal) | TGI (A498 renal) | TGI (EKVX NSCLC) | TGI (HOP-62 NSCLC) | TGI (NCI-H460 lung) | TGI (SF-268 CNS) | TGI (SNB-19 CNS) | TGI (SR leukemia) | TGI (UACC-257 melanoma)

COc1nn(C)cc1Nc1nccc(-c2c[nH]c3c(NC(=O)[C@@H](C)N4CCN(C)CC4)cccc23)n1
45.2 µM: TGI (A498 renal)
78.7 µM: TGI (UACC-257 melanoma)
inactive: GI50 (786-0 renal) 28.8 µM | GI50 (A498 renal) 15.9 µM | GI50 (DU-145 prostate) 62.8 µM | GI50 (EKVX NSCLC) 47 µM | GI50 (HOP-62 NSCLC) 23.1 µM | GI50 (NCI-H460 lung) 40.7 µM | GI50 (SF-268 CNS) 36 µM | GI50 (SNB-19 CNS) 75.6 µM | GI50 (UACC-257 melanoma) 27.7 µM
> 100 µM: TGI (786-0 renal) | TGI (DU-145 prostate) | TGI (EKVX NSCLC) | TGI (HOP-62 NSCLC) | TGI (NCI-H460 lung) | TGI (SF-268 CNS) | TGI (SNB-19 CNS)

C=CCC1(CN(C)C)CC/C(=C\c2ccc3c(c2)OCO3)C1=O (centres undefined)
> 100 µM: TGI (786-0 renal) | TGI (A498 renal) | TGI (HOP-62 NSCLC) | TGI (NCI-H460 lung) | TGI (SF-268 CNS) | TGI (SNB-19 CNS) | TGI (SR leukemia) | TGI (UACC-257 melanoma)
66.9 µM: TGI (EKVX NSCLC)

CN(C(=O)C(C)(C)C)c1ccccc1I(=O)=O
> 100 µM: TGI (786-0 renal) | TGI (A498 renal) | TGI (DU-145 prostate) | TGI (EKVX NSCLC) | TGI (NCI-H460 lung) | TGI (SF-268 CNS) | TGI (SNB-19 CNS) | TGI (UACC-257 melanoma)
26.4 µM: TGI (SR leukemia)
inactive: GI50 (786-0 renal) > 100 µM | GI50 (A498 renal) > 100 µM | GI50 (DU-145 prostate) > 100 µM | GI50 (EKVX NSCLC) > 100 µM | GI50 (NCI-H460 lung) > 100 µM | GI50 (SF-268 CNS) > 100 µM | GI50 (SNB-19 CNS) > 100 µM | GI50 (SR leukemia) 3.15 µM | GI50 (UACC-257 melanoma) > 100 µM

CN1C(=O)N(C)C2C1NC(=S)N2/N=C/C=C/c1ccccc1[N+](=O)[O-] (centres undefined)
inactive: GI50 (786-0 renal) 0.835 µM | GI50 (A498 renal) 0.513 µM | GI50 (DU-145 prostate) 3.81 µM | GI50 (EKVX NSCLC) 3.86 µM | GI50 (HOP-62 NSCLC) 1.01 µM | GI50 (NCI-H460 lung) 0.701 µM | GI50 (SF-268 CNS) 2.67 µM | GI50 (SNB-19 CNS) 0.952 µM | GI50 (UACC-257 melanoma) > 100 µM
> 100 µM: TGI (786-0 renal) | TGI (DU-145 prostate) | TGI (EKVX NSCLC) | TGI (HOP-62 NSCLC) | TGI (NCI-H460 lung) | TGI (SF-268 CNS) | TGI (SNB-19 CNS) | TGI (UACC-257 melanoma)
7.26 µM: TGI (A498 renal)

COc1cccc(N2CC(O)=C(c3nc4ccccc4s3)C2=N)c1
37.1 µM: TGI (786-0 renal)
> 94.5 µM: TGI (SF-268 CNS)
23.4 µM: TGI (HOP-62 NSCLC)
inactive: GI50 (DU-145 prostate) 1.75 µM | GI50 (EKVX NSCLC) 9.24 µM | GI50 (HOP-62 NSCLC) 0.56 µM | GI50 (SF-268 CNS) 1.51 µM | GI50 (SNB-19 CNS) 0.702 µM
20 µM: TGI (A498 renal)
active: GI50 (786-0 renal) 0.363 µM | GI50 (A498 renal) 0.33 µM | GI50 (NCI-H460 lung) 0.24 µM
> 100 µM: TGI (DU-145 prostate) | TGI (EKVX NSCLC) | TGI (NCI-H460 lung) | TGI (SNB-19 CNS) | TGI (SR leukemia)

CC(=O)C1=C(C)N(Cc2ccccc2)C2(O)C=CC(=O)C3=C(O)c4ccccc4C(=O)C312 (centres undefined)
44.1 µM: TGI (SNB-19 CNS)
inactive: GI50 (786-0 renal) 2.26 µM | GI50 (A498 renal) 22.7 µM | GI50 (DU-145 prostate) 4.57 µM | GI50 (EKVX NSCLC) 16.4 µM | GI50 (HOP-62 NSCLC) 13.5 µM | GI50 (NCI-H460 lung) 7.24 µM | GI50 (SF-268 CNS) 10.4 µM | GI50 (SNB-19 CNS) 16 µM | GI50 (UACC-257 melanoma) 5.77 µM
29.1 µM: TGI (SF-268 CNS)
41.3 µM: TGI (NCI-H460 lung)
34.3 µM: TGI (HOP-62 NSCLC)
30.5 µM: TGI (UACC-257 melanoma)
19.7 µM: TGI (DU-145 prostate)
4.26 µM: TGI (786-0 renal)
38.1 µM: TGI (A498 renal)
33.8 µM: TGI (EKVX NSCLC)

O=C(CC12C3C4C1C1C2C3C41CC(=O)NO)NO (centres undefined)
62.5 µM: TGI (NCI-H460 lung)
64.3 µM: TGI (UACC-257 melanoma)
76.1 µM: TGI (A498 renal)
> 100 µM: TGI (786-0 renal) | TGI (EKVX NSCLC) | TGI (HOP-62 NSCLC) | TGI (SF-268 CNS) | TGI (SNB-19 CNS) | TGI (SR leukemia)

Cc1cc(OCc2ccc(C(F)(F)F)cc2)c2c(c1)C(=O)C=C(NCCN1CCCC1)C2=O
6.2 µM: TGI (SNB-19 CNS)
13.2 µM: TGI (HOP-62 NSCLC)
2.99 µM: TGI (786-0 renal)
4.24 µM: TGI (SF-268 CNS)
inactive: GI50 (786-0 renal) 1.6 µM | GI50 (A498 renal) 2.69 µM | GI50 (DU-145 prostate) 6.15 µM | GI50 (HOP-62 NSCLC) 3.44 µM | GI50 (NCI-H460 lung) 1.84 µM | GI50 (SF-268 CNS) 1.97 µM | GI50 (SNB-19 CNS) 2.46 µM | GI50 (SR leukemia) 2.6 µM | GI50 (UACC-257 melanoma) 1.67 µM
3.27 µM: TGI (UACC-257 melanoma)
18.6 µM: TGI (DU-145 prostate)
12.8 µM: TGI (A498 renal)
3.43 µM: TGI (NCI-H460 lung)
6.97 µM: TGI (SR leukemia)

Source: PubChem BioAssay (NCI)
